{"source": "paper PMC10100792", "about": "“Host-Erythrocytic Sphingosine-1-Phosphate Regulates Plasmodium Histone Deacetylase Activity and Exhibits Epigenetic Control over Cell Death and Differentiation” (Microbiology Spectrum, 2023)", "key": {"[1]": {"biological_target": "T1, PfHDAC-1 (histone deacetylase-1) (Plasmodium falciparum, UniProt Q9XYC7)", "T1 sequence (Q9XYC7 1-449)": "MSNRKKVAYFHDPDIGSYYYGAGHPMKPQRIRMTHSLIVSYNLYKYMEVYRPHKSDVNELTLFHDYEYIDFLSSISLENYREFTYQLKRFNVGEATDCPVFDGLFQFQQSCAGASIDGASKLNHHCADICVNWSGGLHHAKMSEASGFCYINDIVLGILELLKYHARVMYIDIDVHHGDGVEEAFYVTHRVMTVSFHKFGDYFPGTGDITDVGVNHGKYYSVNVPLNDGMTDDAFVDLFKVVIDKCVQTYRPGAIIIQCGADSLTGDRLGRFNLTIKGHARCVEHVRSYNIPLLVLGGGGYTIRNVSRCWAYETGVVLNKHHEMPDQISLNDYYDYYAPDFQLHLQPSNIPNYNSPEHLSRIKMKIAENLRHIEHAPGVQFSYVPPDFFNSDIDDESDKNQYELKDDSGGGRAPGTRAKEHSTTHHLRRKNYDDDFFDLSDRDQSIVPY", "assay": "biochemical", "parameters": "gene HDAC1"}, "[2]": {"biological_target": "T2, hSphK-1 (sphingosine kinase 1) (Homo sapiens, UniProt Q9NYA1)", "T2 construct": "gene SPHK1; full-length, 6×His-SphK-1 (1155 bp CDS)", "T2 sequence (Q9NYA1 whole entry)": "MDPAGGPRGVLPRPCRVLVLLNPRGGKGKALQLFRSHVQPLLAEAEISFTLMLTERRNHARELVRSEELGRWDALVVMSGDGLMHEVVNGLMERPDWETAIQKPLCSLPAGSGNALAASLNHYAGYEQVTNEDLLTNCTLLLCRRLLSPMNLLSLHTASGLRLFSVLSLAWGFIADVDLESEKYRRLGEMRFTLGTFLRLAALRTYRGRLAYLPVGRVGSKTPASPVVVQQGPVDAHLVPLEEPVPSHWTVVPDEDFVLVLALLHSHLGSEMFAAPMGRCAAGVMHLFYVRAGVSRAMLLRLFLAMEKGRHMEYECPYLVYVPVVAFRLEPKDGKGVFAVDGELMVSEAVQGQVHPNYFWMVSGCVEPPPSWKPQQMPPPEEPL", "assay": "fluorometric conversion of NBD-Sph ([…]) to NBD-S1P by purified rSphK-1", "assay_type": "biochemical"}, "hHDAC-1": {"biological_target": "T3, hHDAC-1 (Homo sapiens, UniProt Q13547)", "T3 construct": "gene HDAC1", "T3 sequence (Q13547 whole entry)": "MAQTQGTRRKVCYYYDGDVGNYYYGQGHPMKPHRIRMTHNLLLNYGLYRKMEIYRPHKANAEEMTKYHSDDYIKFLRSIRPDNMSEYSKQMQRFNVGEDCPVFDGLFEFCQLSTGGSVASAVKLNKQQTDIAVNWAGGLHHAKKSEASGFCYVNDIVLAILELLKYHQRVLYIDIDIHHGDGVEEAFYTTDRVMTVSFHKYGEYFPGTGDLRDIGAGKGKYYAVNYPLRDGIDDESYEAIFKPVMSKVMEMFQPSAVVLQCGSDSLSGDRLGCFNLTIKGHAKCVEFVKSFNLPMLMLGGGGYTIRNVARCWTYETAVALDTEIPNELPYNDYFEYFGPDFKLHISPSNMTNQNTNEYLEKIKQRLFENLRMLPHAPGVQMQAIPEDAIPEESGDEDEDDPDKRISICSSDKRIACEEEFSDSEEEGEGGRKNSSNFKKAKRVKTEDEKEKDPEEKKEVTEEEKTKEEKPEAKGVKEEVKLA", "assay": "microscale thermophoresis", "assay_type": "binding"}, "[3]": {"biological_target": "T1, PfHDAC-1 (histone deacetylase-1)", "assay": "microscale thermophoresis; also lipid overlay, S1P-bead pull-down, and […] inhibition of the recombinant enzyme at […]", "assay_type": "binding", "parameters": "gene HDAC1; full-length, 6×His-PfHDAC-1 (1380 bp CDS from Pf3D7)"}}, "data": [{"compound": "O=C(CCCCCCC(=O)Nc1ccccc1)NO", "note": "[SAHA, Suberoylanilide Hydroxamic Acid]", "values": [{"measurement": "Kd", "setting": "[1]", "result": "2090 ± 450", "unit": "nM"}]}, {"compound": "N[C@@H](CO)[C@H](O)/C=C/CCCCCCCCCCCCCNc1ccc([N+](=O)[O-])c2nonc12", "note": "[NBD-Sph, NBD-Sphingosine]", "values": [{"measurement": "fluorometric conversion of NBD-Sph (10 μM) to NBD-S1P by purified rSphK-1", "setting": "[2]", "result": "fluorimetry-based enzymatic assay using NBD-sphingosine"}]}, {"compound": "CCCCCCCCCCCCC/C=C/[C@@H](O)[C@@H](N)COP(=O)(O)O", "note": "[S1P, Sphingosine-1-Phosphate]", "values": [{"measurement": "Kd", "setting": "hHDAC-1", "result": "1610 ± 800", "unit": "nM"}, {"measurement": "Kd", "setting": "[3]", "result": "177 ± 24", "unit": "nM"}]}]}
